Source: patent US20230203016A1, “DICARBOXYLIC ACID BISAMIDE DERIVATIVES, USE THEREOF, PHARMACEUTICAL COMPOSITION BASED THEREON AND METHODS FOR PRODUCING DICARBOXYLIC ACID BISAMIDE DERIVATIVES” (TREAMID THERAPEUTICS GMBH, priority 2013, published 2023)

How the values were obtained:
[1] = Acid dissociation constants (pk) by pH-potentiometric titration, Schwarzenbach method; assay type: physicochemical; conditions: aqueous solution, C = 0.02M, ionic strength 0.5 (KNO3), 22° C.; for pk1: titration with 0.05M HCl aqueous solution (footnote 1); for pk2: titration with 0.05M aqueous NaOH solution (footnote 2)
Protocol: An important property of a ligand to form a complex is dissociation constants (pkn) of studied compounds in an aqueous solution. The pkn values are determined by a potentiometric titration method. The calculation of dissociation constants are performed by the Schwarzenbach method [Grinberg A. A., “An introduction to the chemistry of complex compounds”, fourth ed., Amend., L., Khimiya, 1971].
Titration was performed on an apparatus by using a laboratory ionomer I 120.1. A designed galvanic cell consisted of two electrodes, in particular an indicator glass electrode and a silver chloride comparison electrode. The pH value was measured with an accuracy of ±0.2.
A traditional method for determining acid dissociation step constants (k1, . . . , kn) by using pH-metric titration is the Schwarzenbach method.
A sample of a studied compound (3·10^−4 mol) was dissolved in 15.0 ml of a 0.5M aqueous KNO3 solution. The obtained […] solution was titrated with a 0.05M aqueous solution of NaOH or HCl under stirring. The amount (V, ml) of the used titrant and the pH value of the solution were registered in each titration point. A titration step was equal to 0.5 ml, and 0.2 ml in the proximity to the equivalency point. Titration was continued until the pH value of the solution reached 11.0 to 11.5. The pH value of the solution corresponding to a=0.5 and/or a=1.5 was determined by the titration curve pH=f(a), and the amount of added gram-equivalents of the titrant was calculated in terms of 1 mole of a titrated compound.

[2] = Stability constants of complexes with zinc ions by pH-metric titration, Bjerrum method; assay type: physicochemical; conditions: aqueous solution, CL = 0.02M, M^z+/L = 1:6, ion strength 0.5 (KNO3), 22° C.; for The first stability constant of complexes with 1:1 compositions, lgK1, Zn (II): Table 4; for The first stability constant, lgK1 (zinc ions) / The second stability constant, lgK2 (zinc ions) / The third stability constant, lgK3 (zinc ions): Table 5
Protocol: (§1) Initial 0.05 M solutions of M^z+ metal ions were prepared from nitrates of zinc (Zn(NO3)2·6H2O), calcium (Ca(NO3)2·4H2O), copper sulfate (CuSO4·5H2O), magnesium chloride (MgCl2·6H2O) and Mohr's salt ((NH4)2Fe(SO4)2·6H2O). Standardization of the initial solutions of M^z+ salts was performed by a complexometric titration method with trilon B (M^z+=Zn^2+, Cu^2+, Mg^2+, Ca^2+) and a spectrophotometric method at 490 nm by using o-phenanthroline (M^z+=Fe^2+).
(§2) Given the parameters, such as the amount of a studied compound required for potentiometric titration, a testing procedure and a constant calculation method, the Bjerrum method is most suitable and informative [Yu. P. Galaktionov, M. A. Chistyakov, V. G. Sevastiyanov, etc., “Step Stability Constants of Group IIIB Metal and Lanthanide Complexes with Acetylacetone in Aqueous Solution and the Solubility Products of Metal Triacetylacctonates”, Journal of physical chemistry, 2004, v. 78, No. 9, pp. 1596-1604].
(§3) The method is based on the view that the process of complex formation is stepwise. A main assumption of the Bjerrum method is an assumption about the formation of only […] complexes. The process of complex formation can be schematically described as follows:
(§4) According to the Bjerrum method, a studied compound is titrated with a NaOH solution twice: in the absence of and in the presence of a metal ion. The titration is performed under a high constant concentration of an indifferent electrolyte, which provides the solution with a constant ionic strength.
(§5) For these purposes, highly soluble salts are used, for example, sodium and potassium salts. Concentration step stability constants (Kn) are determined from experiments. In addition, the method provides information concerning the composition of a formed complex, in particular, the maximum possible number of bound ligands (n).
(§6) Traditional procedure for determining step stability constants for complexes by the Bjerrum method of pH-metric titration was performed as follows.
(§7) A sample of a studies compound (3·10^−4 mol) was dissolved in 14.0 ml of a 0.5M aqueous KNO3 solution. One ml of a 0.05M aqueous solution of an M^z+ salt was added under vigorous stirring. The systems were studied with a M^z+/L ratio of 1:6. The pH value of a solution was fixed for coexisting ligands and metal ions. The mixture was titrated with a 0.05M NaOH aqueous solution within a broad range of pH values (up to pH 11.0-11.5). The amount of the used titrant (VNaOH, ml) and the pH value of the solution were registered in each titration point. At the moment when a residue formed, the solution became turbid, or the color of the solution changed, the pH value, the nature of the change and the amount of NaOH spent for the titration were registered. The step of titration was 0.25 ml. The value of lgKn was determined by the Bjerrum curve n=f(pA) for each semi-integer value of the function of complex formation n=n−0.5.
Today the Bjerrum method is frequently used to study complex formation processes. This method provides for the determination of two parameters: the concentration of a free ligand under equilibrium conditions ([L^−]) and the function of complex formation n which is the average number of ligands involved in the complex. Thus, using experimental data, the value [L^−] can be calculated for each time point of the titration (in particular, −lg[L^−]=pA), and n can be calculated by equation (1). When a ligand has several dissociating groups, the KL value in equation (1) matches the value of the dissociation constant with the largest pk value.
The Kn value is found from the Bjerrum curve (curve of the complex formation) n=f(pA) plotted according to equation (2) for each semi-integer value (n=n−0.5) of the function of the complex formation. Thus, the step stability constant will be equal to the reciprocal concentration of a free ligand at a point of n=n−0.5. […]

[3] = First stability constant of complexes with copper ions by pH-metric titration, Bjerrum method; assay type: physicochemical; conditions: aqueous solution, CL = 0.02M; M^z+/L = 1:6; ion strength 0.5 (KNO3), 22° C.
Protocol: as §1, §2, §3, §4, §5, §6
(§8) A sample of a studies compound (3·10^−4 mol) was dissolved in 14.0 ml of a 0.5M aqueous KNO3 solution. One ml of a 0.05M aqueous solution of an M^z+ salt was added under vigorous stirring. The systems were studied with a M^z+/L ratio of 1:6. The pH value of a solution was fixed for coexisting ligands and metal ions. […] The value of lgKn was determined by the Bjerrum curve n=f(pA) for each semi-integer value of the function of complex formation n=n−0.5.
(§9) Today the Bjerrum method is frequently used to study complex formation processes. […] Thus, using experimental data, the value [L^−] can be calculated for each time point of the titration (in particular, −lg[L^−]=pA), and n can be calculated by equation (1). […]

[4] = First stability constant of complexes with Fe (II) by pH-metric titration, Bjerrum method; assay type: physicochemical; conditions: aqueous solution, CL = 0.02M; M^z+/L = 1:6; ion strength 0.5 (KNO3), 22° C.
Protocol: as §1, §2, §3, §4, §5, §6, §8, §9

[5] = First stability constant of complexes with Fe (III) by pH-metric titration, Bjerrum method; assay type: physicochemical; conditions: aqueous solution, CL = 0.02M; M^z+/L = 1:6; ion strength 0.5 (KNO3), 22° C.
Source text: as §2, §3, §4, §5, §6, §7, §9

[6] = First stability constant of complexes with magnesium ions by pH-metric titration, Bjerrum method; assay type: physicochemical; conditions: aqueous solution, CL = 0.02M; M^z+/L = 1:6; ion strength 0.5 (KNO3), 22° C.
Protocol: as §1, §2, §3, §4, §5, §6, §8, §9

[7] = First stability constant of complexes with calcium ions by pH-metric titration, Bjerrum method; assay type: physicochemical; conditions: aqueous solution, CL = 0.02M; M^z+/L = 1:6; ion strength 0.5 (KNO3), 22° C.
Protocol: as §1, §2, §3
According to the Bjerrum method, a studied compound is titrated with a NaOH solution twice: in the absence of and in the presence of a metal ion. […]
For these purposes, highly soluble salts are used, for example, sodium and potassium salts. Concentration step stability constants (Kn) are determined from experiments. […]
A sample of a studies compound (3·10^−4 mol) was dissolved in 14.0 ml of a 0.5M aqueous KNO3 solution. […] The value of lgKn was determined by the Bjerrum curve n=f(pA) for each semi-integer value of the function of complex formation n=n−0.5.
as §9

[8] = Study of the chelating ability (summary statements on complex formation); assay type: physicochemical; conditions: statement in words

pk1 [1] | pk2 [1] | The first stability constant of complexes with 1:1 compositions, lgK1, Zn (II) [2] | The first stability constant, lgK1 (zinc ions) [2] | The second stability constant, lgK2 (zinc ions) [2] | The third stability constant, lgK3 (zinc ions) [2] | The first stability constant of complexes with 1:1 compositions, lgK1, Cu (II) [3] | The first stability constant of complexes with 1:1 compositions, lgK1, Fe (II) [4] | The first stability constant of complexes with 1:1 compositions, lgK1, Fe (III) [5] | The first stability constant of complexes with 1:1 compositions, lgK1, Mg (II) [6] | The first stability constant of complexes with 1:1 compositions, lgK1, Ca (II) [7] | melting point | SMILES | ability to form complexes with or chelate metal ions [8]
6.88 | 11.27^(2) | 5.40 | 5.40 | 5.05 | 3.80 | 5.32 | 5.95 | 6.59 | 4.36 | 4.57 | 230 to 231 °C | O=C(CCC(=O)NCCc1cnc[nH]1)NCCc1cnc[nH]1 [Compound 3, N,N′-bis-[2-(1H-imidazol-4-yl)ethyl]butanediamide] | 
 |  |  | 5.62 | 5.15 | 4.04 |  |  |  |  |  |  | O=C(NCCc1c[nH]cn1)c1cccc(C(=O)NCCc2c[nH]cn2)c1 [Compound 6, Bis-1,3-(N^β-histaminyl)isophthalic acid] | 
7.13^(1) | 11.95^(2) | 5.46 | 5.46 | 5.03 | 3.38 | 4.62 | 6.40 | 6.10 | 3.72 | 3.60 | 184 to 186 °C | O=C(CCCCC(=O)NCCc1cnc[nH]1)NCCc1cnc[nH]1 [Compound 12, N,N′-bis-[2-(1H-imidazol-4-yl)ethyl]hexanediamide] | 
 |  |  | 5.50 | 5.24 | 4.48 |  |  |  |  |  |  | O=C(CCCC(=O)NCCc1ncc[nH]1)NCCc1ncc[nH]1 [Compound 10] | 
7.16^(1) | 11.89^(2) | 5.05 | 5.05 | 4.70 | 2.87 | 4.39 | 6.27 | 6.60 | 2.82 |  | 166 to 168 °C | O=C(CCCC(=O)NCCc1cnc[nH]1)NCCc1cnc[nH]1 [Compound 11, N,N′-bis-[2-(1H-imidazol-4-yl)ethyl]pentanediamide] | capable of forming complexes with metal ions
 |  |  | 6.25 | 5.80 | 5.05 |  |  |  |  |  |  | O=C(CCCC(=O)NCCc1nccs1)NCCc1nccs1 [Compound 8] | 

SMILES | pk1 [1] | pk2 [1] | The first stability constant of complexes with 1:1 compositions, lgK1, Zn (II) [2] | The first stability constant, lgK1 (zinc ions) [2] | The second stability constant, lgK2 (zinc ions) [2] | The third stability constant, lgK3 (zinc ions) [2] | The first stability constant of complexes with 1:1 compositions, lgK1, Cu (II) [3] | The first stability constant of complexes with 1:1 compositions, lgK1, Fe (II) [4] | The first stability constant of complexes with 1:1 compositions, lgK1, Fe (III) [5] | The first stability constant of complexes with 1:1 compositions, lgK1, Mg (II) [6] | The first stability constant of complexes with 1:1 compositions, lgK1, Ca (II) [7] | melting point | ability to form complexes with or chelate metal ions [8]
O=C(NCCc1cnc[nH]1)C(=O)NCCc1cnc[nH]1 [Compound 1, N,N′-bis-[2-(1H-imidazol-4-yl)ethyl]ethanediamide] |  |  |  | 4.52 | 4.21 | 3.75 |  |  |  |  |  |  | 
O=C(CC(=O)NCCc1cnc[nH]1)NCCc1cnc[nH]1 [Compound 2, N,N′-bis-[2-(1H-imidazol-4-yl)ethyl]propanediamide] | 7.11^(1) | 11.27^(2) | 4.84 | 4.84 | 4.50 | 2.60 | 4.17 | 5.08 | 5.29 | 2.59 | 2.06 |  | 
